Laboratory results from patent publication US8653023B1, “Dual beneficial effect of dopamine enhancing and neuroprotective actions of PKC delta inhibitors for treatment of Parkinson's disease” (Iowa State University Research Foundation, Inc., priority 2006, dated 2014).

Columns and labels:
[1] = test system: tyrosine hydroxylase (TH); experiment: TH-ser40 phosphorylation in primary mesencephalic neurons (immunofluorescence); assay type: cell-based, mouse; settings: PKCδ (+/+) primary neuronal cultures, 3 μM rottlerin for 3 hr
Protocol: PC12 and N27 cells were cultured as described earlier (Anantharam et al., 2002; Kaul et al., 2003). Briefly, cells were grown in RPMI 1640 medium containing 10% fetal bovine serum, 2 mM L-glutamine, 50 units of penicillin, and 50 μg/ml streptomycin. Cells were maintained in a humidified atmosphere of 5% CO2 at 37° C. N27 cells were differentiated with 2 mM dibutyryl cAMP for 3-5 days and then used for experiments described below. Primary mesencephalic neuronal cultures were prepared from the ventral mesencephalon of gestational 16-18-day-old mice embryos as described previously (Yang et al., 2004). Mesencephalic tissues were dissected and maintained in ice-cold Ca^2+-free HESS and then dissociated in HBSS solution containing trypsin-EDTA (0.25%) for 20 min at 37° C. The dissociated cells were then plated at equal density (0.5×10^6 cells) in 30-mm-diameter tissue culture wells precoated with poly-L-lysine (1 mg/ml). […]
Plasmid pPKCδ^K376R-V5 encodes the loss of function PKCδ-V5 epitope tagged mutant protein; K376R refers to the mutation of the lysine residue at position 376 to arginine in the catalytic site resulting in inactivation of the kinase. […] Transfection efficiency was >75% as determined by immunostaining of V5-expression. […]

[2] = test system: N27 cells; experiment: Cellular DA and DOPAC levels in N27 cells (HPLC-EC); assay type: cell-based, rat; settings: N27 cells; rottlerin vs vehicle, PKCδ-DN vs LacZ
Protocol: PC12 cells, differentiated N27 dopaminergic cells and primary mesencephalic neurons were exposed to 1-10 μM rottlerin for the duration of the experiment. DMSO (0.01%) was used as vehicle control. PKCδ-DN- and Lac Z-expressing N27 cells were only treated with 0.01% DMSO. […] Untreated or vehicle treated cells were used as control samples.
DA and DOPAC levels in PC12, N27 cells and in brain striatal tissues were determined by high-performance liquid chromatography with electrochemical detection (HPLC-EC); samples were prepared as described previously (Kitazawa et al., 2001). The DA and DOPAC levels were measured as pg/mg protein and expressed as percent of control.

CC(=O)c1c(O)c(C)c(O)c(Cc2c(O)c3c(c(C(=O)/C=C/c4ccccc4)c2O)OC(C)(C)C=C3)c1O [rottlerin]
TH-ser40 fluorescent intensity, increase [1]: 4 fold
DA level [2]: 2748±208 pg/μg protein
DOPAC levels [2]: 2564±848.19 pg/μg protein
increase in DA level [2]: 4 fold
increase in DOPAC levels [2]: 4 fold
